Reference: US20160193278A1, “METHODS AND COMPOSITIONS FOR PREVENTING OR TREATING LEBER'S HEREDITARY OPTIC NEUROPATHY” (STEALTH BIOTHERAPEUTICS CORP, priority 2013, published 2016)
Where no end group is shown, it is not given here. [ ]: non-standard residue; d: D form.

How the values were obtained:
[1] = tested on: several mammalian cell types; details: cited from earlier work
[2] = tested on: excessive production of reactive oxygen species; details: cited from earlier work
[3] = tested on: LHON patients; details: 900 mg/d for 24 weeks, vs placebo; preliminary press release; cited from earlier work
[4] = tested on: LHON patients; details: cited from earlier work
[5] = tested on: brain mitochondrial H2O2 production; test: Brain mitochondrial / synaptosome H2O2 production with rotenone; type: biochemical, mouse; details: for decrease of the rate of generation of H2O2 during RET conditions: succinate plus oligomycin
[6] = tested on: quails; details: group with high zeaxanthin concentrations; cited from earlier work
[7] = tested on: murine model of LHON (ND6 P25L mutation); test: Treatment of LHON in ND6 P25L mouse model (Example 2); type: in vivo; details: ND6 P25L mice
[8] = tested on: murine model of LHON (ND6 P25L mutation); test: Prevention of LHON in ND6 P25L mouse model (Example 1); type: in vivo; details: ND6 P25L mice
[9] = target: mu-opioid receptor (Homo sapiens, UniProt P35372); details: cited from earlier work
[10] = tested on: LHON cybrid cells (11778/ND4, 3460/ND1, 14484/ND6); test: ATP synthesis rate in LHON cybrids (Example 4); type: cell-based, human; details: 1-10 μg, compared to untreated LHON cybrid cells
Source text: (§1) Cybrid cell lines are constructed using enucleated fibroblasts from a control individual (i.e., negative for LHON) and 3 unrelated probands with LHON as mitochondria donors. One control cybrid cell line and three LHON cybrid cell lines, one for each of the most common pathogenic mutations found in LHON, i.e., mutations at positions 11778/ND4, 3460/ND1, and 14484/ND6 of mtDNA, are produced.
The mitochondrial donor cytoplast is fused with the osteosarcoma (143B.TK-)-derived 206 cell line (rho^0 206 cell line). All fibroblast cell lines are established from skin biopsy samples or from umbilical cord specimens after having obtained the informed consent of LHON and control patients. […]
(§2) 1 ml of each cybrid cell line at 5×10^6 cells/ml is individually plated in tissue culture plates with growth media. […] After incubation for 1 hour at 37° C., the ATP synthesis rate and cellular respiration are measured.
The ATP synthesis rate is assayed by permeabilizing the cells with digitonin according to the method described by Ouhabi et al., Anal Biochem., 263: 169-175 (1998). […] The ATP content is measured using the luciferin-luciferase chemiluminescent method, e.g., described in Stanley et al., Anal Biochem., 29: 381-392 (1969).

[11] = tested on: reactive oxygen species (ROS) production; details: known in the art; demonstrated in U.S. Pat. Nos. 7,550,439 and 7,576,061; cited from earlier work
[12] = tested on: caspase activation and apoptosis; details: known in the art; cited from earlier work
[13] = tested on: human subjects at risk of having, suspected of having, or diagnosed as having LHON; test: Prevention and treatment of LHON in human subjects (Example 3); type: in vivo
Procedure: Human subjects at risk of having, suspected of having, or diagnosed as having LHON are administered a therapeutically effective amount of an aromatic-cationic peptide of the present technology, such as D-Arg-2′,6′-Dmt-Lys-Phe-NH2, alone or in conjunction with one or more additional therapeutic agents, on a therapeutic schedule appropriate for the prophylactic/therapeutic needs of the individual.
LHON patients are administered 1-10 μg D-Arg-2′,6′-Dmt-Lys-Phe-NH2 or saline vehicle subcutaneously once daily for 12 months. In another treatment group, LHON patients receive 1 drop of 1%, 3%, or 5% D-Arg-2′,6′-Dmt-Lys-Phe-NH2 ophthalmic solution or saline vehicle in both eyes three times per day for 12 months. Subjects are assessed periodically for signs and symptoms associated with LHON according to one or more criteria described herein.

[14] = tested on: LHON cybrid cells (11778/ND4, 3460/ND1, 14484/ND6); test: Respiratory rate of digitonin-permeabilized LHON cybrids (Example 4); type: cell-based, human; details: 1-10 μg, compared to untreated LHON cybrid cells
Source text: as §1
The mitochondrial donor cytoplast is fused with the osteosarcoma (143B.TK-)-derived 206 cell line (rho^0 206 cell line). All fibroblast cell lines are established from skin biopsy samples or from umbilical cord specimens after having obtained the informed consent of LHON and control patients. Cell fusions of fibroblast-derived cytoplasts (enucleated fibroblasts) with the rho^0 206 cells are performed using the protocol, e.g., described in King et al., Science, 246: 500-03 (1989). […]
as §2
Respiratory rates of digitonin-permeabilized cell samples are measured at 30° C. using a Clark-type oxygen electrode as previously described by Aicardi et al., Biochem Pharmacol., 31:3703-3705 (1982). The respiratory control ratio (RCR) is evaluated using glutamate-malate as a substrate.

[15] = once daily from 14-24 months of age
[16] = once daily from 0-14 months of age

Chain of mu-opioid receptor (P35372 whole entry, species assumed): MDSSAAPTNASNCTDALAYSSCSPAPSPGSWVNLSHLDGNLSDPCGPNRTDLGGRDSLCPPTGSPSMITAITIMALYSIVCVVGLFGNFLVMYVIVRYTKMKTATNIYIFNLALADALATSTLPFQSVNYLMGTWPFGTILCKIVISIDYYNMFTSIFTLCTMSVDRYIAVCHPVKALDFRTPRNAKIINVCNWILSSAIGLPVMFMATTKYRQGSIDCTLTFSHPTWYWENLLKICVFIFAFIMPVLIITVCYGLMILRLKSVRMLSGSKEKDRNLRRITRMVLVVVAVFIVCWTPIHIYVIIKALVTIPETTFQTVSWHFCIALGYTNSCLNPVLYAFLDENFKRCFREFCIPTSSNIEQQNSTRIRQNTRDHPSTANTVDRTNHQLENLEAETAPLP

Molecule: 2′,6′-Dmt-D-Arg-Phe-Lys-NH2
- penetration of the plasma membrane [1]: readily penetrates the plasma membrane of several mammalian cell types in an energy-independent manner

Molecule: Cc1c(C)c2c(c(C)c1O)CCC(C)(C(=O)O)O2 (stereo not drawn) [Trolox]
- protective effects in vitro [2]: modest protective effects

Molecule: COC1=C(OC)C(=O)C(C/C=C(\C)CC/C=C(\C)CC/C=C(\C)CC/C=C(\C)CC/C=C(\C)CC/C=C(\C)CC/C=C(\C)CC/C=C(\C)CC/C=C(\C)CCC=C(C)C)=C(C)C1=O [coenzyme Q-10]
- protective effects in vitro [2]: modest protective effects

Molecule: N[C@@H](CCC(=O)N[C@@H](CS)C(=O)NCC(=O)O)C(=O)O [glutathione]
- protective effects in vitro [2]: modest protective effects

Molecule: COC1=C(OC)C(=O)C(CCCCCCCCCCO)=C(C)C1=O [idebenone]
- final visual acuity [3]: better final visual acuity than the placebo group
- diameter of the central scotomas after treatment ([4]; one 11778/ND4 LHON patient, from about 20 degrees): less than 5 degrees
- recovery of visual function ([4]; seven LHON patients, about 450 mg/d): recovery of visual acuity, color vision, and visual fields

Molecule: C=C(C)[C@H]1Cc2c(ccc3c2O[C@@H]2COc4cc(OC)c(OC)cc4[C@@H]2C3=O)O1 [rotenone]
- decrease of the rate of generation of H2O2 during RET conditions ([5]; ND6 P25L mice): approximately 59%
- increase of the rate of H2O2 production during forward electron transfer ([5]; ND6 P25L synaptosomes): ~2.7 fold
- decrease of the rate of generation of H2O2 during RET conditions ([5]; wild-type animals): approximately 79%
- increase of the rate of H2O2 production during forward electron transfer ([5]; wild-type synaptosomes): ~2.3 fold

Molecule: CC1=C(/C=C/C(C)=C/C=C/C(C)=C/C=C/C=C(C)/C=C/C=C(C)/C=C/C2=C(C)C[C@@H](O)CC2(C)C)C(C)(C)C[C@H](O)C1 [zeaxanthin]
- light damage of the retina (apoptotic photoreceptor cells) [6]: minimal damage

Molecule: D-Arg-2′,6′-Dmt-Lys-Phe-NH2
- RGC axonal swelling and preferential loss of smallest fibers [7, 15]: reduce or eliminate the effects of the ND6 P25L mutation
- abnormal mitochondrial morphology and proliferation in RGC axons [7, 15]: reduce or eliminate the effects of the ND6 P25L mutation
- altered liver mitochondria complex I activity [7, 15]: reduce or eliminate the effects of the ND6 P25L mutation
- forward / reverse electron flow ROS production in liver mitochondria [7, 15]: reduce or eliminate the effects of the ND6 P25L mutation
- reduced complex I activity and altered ROS production in synaptosomes [7, 15]: reduce or eliminate these effects of the ND6 P25L mutation
- reduced retinal response (electroretinogram deficits) [7, 15]: reduce or eliminate the effects of the ND6 P25L mutation
- effect of combination compared to any individual therapeutic agent alone ([7]; in combination with one or more additional therapeutic agents, treatment): synergistic effects
- RGC axonal swelling and preferential loss of smallest fibers [8, 16]: prevent the onset of, delay the onset of, or reduce the severity of these effects
- abnormal mitochondrial morphology and proliferation in RGC axons [8, 16]: prevent the onset of, delay the onset of, or reduce the severity of these effects
- altered liver mitochondria complex I activity [8, 16]: prevent the onset of, delay the onset of, or reduce the severity of these effects
- effects of the ND6 P25L mutation; LHON and its symptoms [8, 16]: prevent the onset of, delay the onset of, and/or reduce the severity (e.g., ameliorate) of the effects of the ND6 P25L mutation
- forward / reverse electron flow ROS production in liver mitochondria [8, 16]: prevent the onset of, delay the onset of, or reduce the severity of these effects
- reduced complex I activity and altered ROS production in synaptosomes [8, 16]: prevent the onset of, delay the onset of, or reduce the severity of these effects
- reduced retinal response (electroretinogram deficits) [8, 16]: prevent the onset of, delay the onset of, or reduce the severity of (e.g. ameliorate) these effects
- effect of combination compared to any individual therapeutic agent alone ([8]; in combination with one or more additional therapeutic agents, prevention): synergistic effects
- mu-opioid receptor agonist activity [9]: does not have mu-opioid receptor agonist activity
- ATP synthesis rate [10]: greater ATP synthesis rate
- anti-oxidant properties [11]: possess anti-oxidant properties
- caspase activation and apoptosis [12]: capacity to inhibit caspase activation and apoptosis
- symptoms of LHON ([13]; human subjects at risk of, suspected of or diagnosed as having LHON): prevent the onset of, delay the onset of, or reduce the severity of the symptoms of LHON
- effect of combination compared to any individual therapeutic agent alone ([13]; in combination with one or more additional therapeutic agents, human subjects): synergistic effects
- respiratory rate [14]: higher respiratory rate

Molecule: F[dR]FK-NH2
- mu-opioid receptor agonist activity [9]: does not have mu-opioid receptor agonist activity

Molecule: Tyr-D-Arg-Phe-Lys-NH2
- mu-opioid receptor agonist activity [9]: has mu-opioid receptor agonist activity
